What was measured:
C57BL/6 mice [1] = experiment: In vivo Luc mRNA delivery after IV injection, ex vivo organ luminescence; parameters: species or system mouse; conditions: 6 h; for organ of luciferase expression (tissue specific mRNA delivery): IV, 0.1 mg/kg Luc mRNA
Procedure: Next, to test the ability of these mDLNPs to deliver mRNA in vivo, mice were injected with a dose of 0.1 mg/kg of Luc mRNA in each of the formulations. […] Assuming that luciferase expression was detected only in liver, spleen and lung after IV injection, the percentage of luciferase expressed in each organ can be calculated (FIG. 1C). […] However, the greater the DOTAP percentage, the more luminescence is seen in lung tissues, with close to 100% of luminescence seen in the lung when DOTAP percentage is greater than 80% (FIG. 1C).
C57BL/6 mice with weight of 18-20 g, were IV injected by various Luc mRNA formulations at a dose of 0.1 or 0.05 mg/kg. n=2-4 per group. After 6 h, mice were intraperitoneal (IP) injected with D-Luciferin (150 mg/kg) and imaged by an IVIS Lumina system (Perkin Elmer). For biodistribution, C57BL/6 mice were IV injected with Cy5-Luc mRNA formulations at a dose of 0.5 mg/kg. Ex vivo imaging (Cy5 channel) was performed 6 h post injection.

C57BL/6 mice [2] = experiment: Biodistribution of Cy5-Luc mRNA formulations; assay type: in vivo, mouse; conditions: IV, 0.5 mg/kg, 6 h
Procedure: To test the organ biodistributions of specific DOTAP formulations in greater depth, PBS or liver targeting NPs (mDLNP), spleen targeting NPs (DOTAP10) and lung targeting NPs (DOTAP50) were injected into C57BL/6 mice (n=2) at a dose of 0.5 mg/kg Cy5-Luc mRNA (dye labeled mRNA to track RNA LNPs). 6 h post injection, major organs were collected and imaged (FIG. 3A). The organ distribution of formulations was changed by the amount of DOTAP, and accumulation in liver gradually moved to lung with increasing DOTAP percentages, but regardless of DOTAP percentage, there are still NPs present in the liver (FIG. 7, FIG. 8). […] Further, considering the similar size distribution and EE between these formulations, zeta-potential and pKa may play roles in tissue targeting mRNA expression.
Mechanistic experiments were conducted to explore how and why inclusion of extra lipids in defined categories controls mRNA delivery to different organs. It is logical that LNPs that deliver to cells within the lungs should biodistribute (accumulate) in the lungs. Cy5-labeled mRNA was delivered to track the in vivo distribution of 5A2-SC8 LNPs containing SORT lipids with lung (DOTAP quaternary amino lipid), spleen (18PA anionic lipid and DSPC zwitterionic lipid) and liver (DODAP ionizable tertiary amino lipid) tropism (FIGS. 27A & 28). […]

HeLa-Luc cells = experiment: Cellular uptake and uptake mechanism in HeLa-Luc cells; assay type: cell-based; conditions: pre-incubation 1 h, then 24 nM sgLuc, 30 min
From the text: First, DOTNPs containing Cas9/sgRNA RNPs that were tagged by a green fluorescent EGFP were tracked by confocal microscopy (FIG. 12A). […] Green: EGFP fused Cas9 protein; Blue: nuclei stained with Hoechst 33342. Red arrows indicated the process of DOTNP10 entering into nucleus. (FIG. 12B)
To evaluate this strategy, 5A2-SC8 was selected as the ionizable cationic lipid because 5A2-SC8 LNPs safely deliver short siRNAs/miRNAs and long mRNAs to mice with compromised liver function, including MYC-driven liver cancer (Zhou et al., 2016; Zhang et al., 2018a; Zhang et al., 2018b) or genetic knockout of fumarylacetoacetate hydrolase (FAH) (Cheng et al., 2018). Introduction of a permanently cationic lipid (e.g. DOTAP) into traditional 4-component 5A2-SC8 LNP formulations indeed allowed controlled self-assembly to occur by mixing an ethanol solution of lipids with a PBS solution of RNPs (1/3, v/v). […] Initially using sgRNA targeting reporter Luciferase (sgLuc), the size of LNPs with 10 mole % DOTAP incorporation (5A2-DOT-10: 5A2-SC8/DOPE/Cho1/DMG-PEG/DOTAP=15/15/30/3/7 (mol/mol)) was observed, prepared using PBS buffer were slightly larger than nanoparticles without RNP loading. […]
To examine the uptake mechanism, assays of specific inhibition on endocytosis pathways were evaluated using Hela-Luc cells. […] The cells were then collected and analyzed by flow cytometry. […]

Td-Tomato mice = experiment: sgRNA screening in Td-Tomato mice; assay type: in vivo, mouse; conditions: mDLNP, Cas9/sgRNA 4/1 wt/wt, total 3 mg/kg IV, day 7
From the text: These sgRNAs are sgTom1, sgTom2 and sgLoxP. […] Considering the weak PAM of sgLoxP (NAG), sgTom1 was finally chosen for further experiments.

| Compound | organ of luciferase expression (tissue specific mRNA delivery) (C57BL/6 mice [1]) | other results |
| --- | --- | --- |
| CCCCCCCCCCCCCC(=O)OC[C@H](COP(=O)(O)O)OC(=O)CCCCCCCCCCCCC [14PA, 1,2-dimyristoyl-sn-glycero-3-phosphate] | exclusively spleen | – |
| CCCCCCCC/C=C\CCCCCCCC(=O)OCC(O)COP(=O)(O)OCC(COC(=O)CCCCCCC/C=C\CCCCCCCC)OC(=O)CCCCCCC/C=C\CCCCCCCC (stereo not shown) [18BMP, sn-(3-oleoyl-2-hydroxy)-glycerol-1-phospho-sn-3′-(1′,2′-dioleoyl)-glycerol] | exclusively spleen | – |
| CCCCCCCC/C=C\CCCCCCCC(=O)OC[C@H](COP(=O)(O)O)OC(=O)CCCCCCC/C=C\CCCCCCCC [18PA, 1,2-dioleoyl-sn-glycero-3-phosphate] | exclusively spleen | organ distribution of Cy5-labeled mRNA (C57BL/6 mice [2]): increased uptake into the spleen |
| CCCCCCCCCCC(O)CN(CCN1CCN(CCN(CC(O)CCCCCCCCCC)CC(O)CCCCCCCCCC)CC1)CCN(CC(O)CCCCCCCCCC)CC(O)CCCCCCCCCC (stereo not shown) [C12-200] | enhanced liver delivery without any luciferase expression in the lungs | delivery efficacy compared with original mDLNP formulation (C57BL/6 mice [1]; 0.1 mg/kg, n=2): much better delivery efficacy than original mDLNP formulation |
| CCCCCCCCCCCCCCCCCC[N+](C)(C)CCCCCCCCCCCCCCCCCC [DDAB, dimethyldioctadecylammonium] | liver to spleen to lung based on SORT lipid percentage | organ of luciferase signal at 40% SORT lipid (C57BL/6 mice [1]; 0.1 mg/kg): high luciferase signal was observed exclusively in the lungs |
| CCCCCCCC/C=C\CCCCCCCC(=O)OCC(C[N+](C)(C)CCOP(=O)([O-])OCC)OC(=O)CCCCCCC/C=C\CCCCCCCC (stereo not shown) [DOCPe, 2-((2,3-bis(oleoyloxy)propyl)dimethylammonio)ethyl ethyl phosphate] | move from liver to spleen | – |
| CCCCCCCC/C=C\CCCCCCCC(=O)OCC(CN(C)C)OC(=O)CCCCCCC/C=C\CCCCCCCC (stereo not shown) [DODAP, 1,2-dioleoyl-3-dimethylammonium-propane] | enhanced liver delivery without any luciferase expression in the lungs | mRNA delivery when added to C2 LNPs (no ionizable cationic lipid) (C57BL/6 mice [1]; 0.1 mg/kg, n=2): failed to enable significant mRNA delivery |
| CCCCCCCC/C=C\CCCCCCCC(=O)OCC(C[N+](C)(C)C)OC(=O)CCCCCCC/C=C\CCCCCCCC (stereo not shown) [DOTAP, 1,2-dioleoyl-3-trimethylammonium-propane] | liver to spleen to lung based on SORT lipid percentage | mRNA delivery when added to C2 LNPs (no ionizable cationic lipid) (C57BL/6 mice [1]; 0.1 mg/kg, n=2): failed to enable significant mRNA delivery; organ distribution of Cy5-labeled mRNA (C57BL/6 mice [2]): progressive increase in lung accumulation |
| CCCCCCCCCCCCCCCCCC(=O)OC[C@H](COP(=O)([O-])OCC[N+](C)(C)C)OC(=O)CCCCCCCCCCCCCCCCC [DSPC, 1,2-distearoyl-sn-glycero-3-phosphocholine] | move from liver to spleen | – |
| CCCCCCCCCCCCCC(=O)OCC(COP(=O)(OCC)OCC[N+](C)(C)C)OC(=O)CCCCCCCCCCCCC.Cl (stereo not shown) [EPC, 1,2-dimyristoyl-sn-glycero-3-ethylphosphocholine] | liver to spleen to lung based on SORT lipid percentage | organ of luciferase signal at 40% SORT lipid (C57BL/6 mice [1]; 0.1 mg/kg): high luciferase signal was observed exclusively in the lungs |
| Methyl-o-cyclodextrin [MβCD] | – | effect of endocytosis inhibitor on uptake of 5A2-DOT-10 LNPs (HeLa-Luc cells): significantly inhibited |
| sgTom1: sgRNA, AAGTAAAACCTCTACAAATG (SEQ ID NO: 1) (chemically modified sgRNA from Synthego, pattern not given here) | – | induction of TdTomato in liver (Td-Tomato mice): more successful at inducing TdTomato than sgTom2 |
